{"source": "patent US6416737B1", "about": "“Increasing bone strength with selected bisphosphonates” (Board of Trustees of the University of Arkansas, priority 1998, dated 2002)", "key": {"[1]": {"settings": "rats, intravenously; cited from earlier work"}, "[2]": {"system": "osteoblastic cells derived from murine calvaria", "assay": "Apoptosis of osteoblastic cells derived from murine calvaria by trypan blue uptake", "type": "cell-based", "settings": "10^−7 M, 1 h pretreatment; 6 h"}, "osteocytic MLO-Y4 cells": {"system": "osteocytic MLO-Y4 cells", "assay": "TUNEL reaction in MLO-Y4 cells", "type": "cell-based, murine", "settings": "10^−7 M alendronate 1 h and/or 10^−6 M dexamethasone 6 h", "description": "(§1) MLO-Y4 osteocytic cells and calvaria osteoblastic cells were treated for 1 hour in the absence or presence of different BPs or sCT. Subsequently, dexamethasone, etoposide or TNF-α were added to obtain final concentrations of 10^−6 M, […], or 1 nM, respectively, and cells were incubated for additional 6 h. The effect of PD98059 (50 μM) or UO126 (1 μM) was evaluated by pretreating the cells with the inhibitors for 30 min before adding the BPs or sCT. In the experiment using the membrane permeable caspase inhibitor DEVD, cells were cultured for 1 hour with 50 nM DEVD-CHO and subsequently the pro-apoptotic agents were added to reach the final concentrations indicated above. […] At least 500 cells from fields selected by systematic random sampling were examined for each experimental condition. […] The TUNEL reaction was performed according to the manufacturer's instructions, using 0.15% CuSO4 for color enhancement. Negative controls were made by omitting the transferase from the reaction. Cells presenting brown nuclear staining were considered positive. More than 500 cells per condition were analyzed. Apoptosis of parental MLO-Y4 or calvaria cells was quantified by trypan blue staining (Jilka, et al., 1998. J. Bone Miner. Res. 13:793-802). Nonadherent cells were combined with adherent cells released from the culture dish using trypsin-EDTA, resuspended in medium containing serum, and collected by centrifugation. […] At least 100 cells per condition were counted."}, "[3]": {"system": "osteocyte and osteoblast apoptosis in murine vertebral cancellous bone", "assay": "Murine model of glucocorticoid excess: TUNEL in vertebral bone sections and spinal BMD by DEXA", "type": "in vivo, Male Swiss Webster mice", "settings": "alendronate beginning 3 days before prednisolone pellets", "source_text": "To adjust for the difference in the metabolic rate in mice compared to that in humans, the daily glucocorticoid dose was divided by the metabolic weight, i.e. the weight in kg to the 3/4 power (Borchard, et al., 1992. Drug dosage in laboratory animals: a handbook. CRC Press, Inc., Boca Raton, Fla. 514 pp.; Kleiber, M. 1961. The fire of life: an introduction to animal energetics. New York). […] One control group received saline injections with placebo pellet implantation while another group received saline injections plus prednisolone pellets. Dual-energy X-ray absorptiometry (DEXA) was used to determine spinal bone mineral density (spinal BMD) at the end of the 56-day experiment, as previously described (Weinstein et al., 1998. J. Clin. Invest. 102:274-282).\nSections of vertebral bone (L1 to L5) were mounted on silane-coated glass slides (Scientific Device Lab, Inc., Des Plains, Ill.), deplasticized and incubated in 10 mM citrate buffer, pH 7.6, in a microwave oven at 98° C. for 5 minutes (Jilka, et al., 1998. J. Bone Miner. Res. 13:793-802). Slides were then incubated with 0.5% pepsin for 30 minutes at 37° C. Apoptotic cells were detected by the TUNEL reaction as described above using 0.15% CuSO4 for color enhancement of the diaminobenzidine in sections counterstained with 1% methyl green. The TUNEL reaction is noted within cell nuclei and the cells whose nuclei were clearly brown from the streptavidin-horse radish peroxidase conjugate instead of blue-green from the methyl green were interpreted as positive. Plastic-embledded sections of weaned rat mammary tissue were used as a positive control. Negative controls were made by omitting the transferase from the TUNEL reaction. Morphological changes characteristic of apoptosis were carefully examined to minimize ambiguity regarding the interpretation of results. […] Osteocytes were identified inside lacunae in mineralized bone (FIG. 11A). Osteoblasts were identified as cuboidal cells lining the osteoid-covered trabecular perimeter (FIG. 11B)."}, "ERK1/2": {"system": "ERK1/2", "assay": "ERK1/2 phosphorylation in MLO-Y4 cells by Western blot", "type": "cell-based, murine", "settings": "10^−7 M", "description": "Monolayers were washed with cold 20 mM Tris-HCl (pH 7.5), 150 mM NaCl, 1 mM sodium orthovanadate and lysed in the lysis buffer mentioned above. Insoluble material was pelleted in a microcentrifuge at 14,000×rpm for 10 mn. […] Proteins (10 μg) were separated on 7.5% SDS-polyacrylamide gels and electrotransferred to a polyvinylidene difluoride membrane. Immunoblotting was performed using a mouse monoclonal antibody recognizing tyrosine phosphorylated ERK1/2, or a rabbit polyclonal antibody recognizing total ERK1/2, followed by incubation with either an antimouse or an antirabbit antibody conjugated with horseradish peroxidase. Blots were developed using Chemiluminescence according to the manufacturer's recommendations. Quantitation of the intensity of the bands in the autoradiograms was performed using a scanner (Microtek Lab., Redondo Beach, Calif.)."}, "MLO-Y4 osteocytic cells": {"system": "MLO-Y4 osteocytic cells", "settings": "for inhibition of glucocorticoid-induced apoptosis: then dexamethasone 10^−6 M for 6 h", "description": "The murine long bone-derived osteocytic cell line MLO-Y4 was provided by Dr. Lynda Bonewald (University of Texas Health Center at San Antonio, Tex.). Cells were cultured in phenol red-free αMEM supplemented with 5% FBS, 5% bovine calf serum, 100 U/ml penicillin and 100 μg/ml streptomycin. Cells were plated at 1-2×10^4 cells/cm^2 on collagen type I coated plates, as described previously (Kato, et al., 1997. J. Bone Miner. Res. 12:2014-2023). Murine calvaria cells were obtained from neonatal (3- to 6-day old) C57BL/6J mice by controlled digestion with collagenase, as previously described (Bellido, et al., 1997. Endocrinology 138:3666-3676). After isolation, cells were cultured in 10% FBS at 1-2×10^4 cells/cm^2 until 90-95% confluence. Subsequently, cells were harvested and frozen for later use. UMR-106-06 cells were cultured in phenol red-free MEM supplemented with 10% FBS, 1% non-essential aminoacids, 100 U/ml penicillin, and 100 μg/ml streptomycin (Sakagami, et al., Manolagas. 1993. J. Bone Miner. Res. 8:811-816).\nNonadherent cells were combined with adherent cells released from the culture dish using trypsin-EDTA, resuspended in medium containing serum, and collected by centrifugation. […] At least 100 cells per condition were counted.\nas §1\nMLO-Y4 cells were incubated for 1 h in vehicle or 50 nM DEVD-CHO. Subsequently, etoposide, TNF-α, or dexamethasone (Dex) were added at final concentrations of 50 μg/ml, 1 nM, or 10^−6 M, respectively, and cells were incubated for additional 6 h. Dead cells were enumerated by trypan blue uptake.\nThe percentage of dead cells was determined by trypan blue uptake, as in Methods and Materials. Bars represent the mean ±S.D. of three independent measurements.\nSubsequently, etoposide, TNF-α, or dexarnethasone were added to reach final concentrations of 50 μg/ml, 1 nM, or 10^−6 M, respectively, and cells were cultured for 6 h, as in FIG. 1. The percentage of dead cells was determined by trypan blue uptake. Bars represent the mean ±S.D. of three independent measurements. Data were analyzed by two-way ANOVA."}, "[4]": {"settings": "cited from earlier work"}, "osteoblast apoptosis": {"system": "osteoblast apoptosis", "settings": "intermittent PTH administration in mice; decreased from 1.7-2.2%; cited from earlier work"}}}
{"molecule": "CC(=O)N[C@@H](CS)C(=O)O", "note": "[N-acetylcysteine, acetarnido-mercaptopropionic acid]", "values": [{"measurement": "LD50", "setting": "[1]", "value": 1140, "unit": "mg/kg"}]}
{"molecule": "NCCCC(O)(P(=O)(O)O)P(=O)(O)O", "note": "[alendronate, 4-amino-1-hydroxybutylidene-1,1-bisphosphonate]", "values": [{"measurement": "inhibition of apoptosis of osteoblastic cells induced by dexamethasone, TNF-α and etoposide", "setting": "[2]", "value": "inhibited apoptosis"}, {"measurement": "dexamethasone-induced increase in caspase-3 activity", "setting": "caspase-3; 10^−7 M alendronate 1 h, then 10^−6 M dexamethasone 16 h", "value": "inhibited the dexamethasone-induced increase in caspase-3 activity"}, {"measurement": "caspase-3 activity, TUNEL positive cells and number of living cells", "setting": "caspase-3; alendronate alone, absence of dexamethasone", "value": "did not affect any of these parameters"}, {"measurement": "% of TUNEL positive cells", "setting": "osteocytic MLO-Y4 cells", "value": 6.16, "unit": "%"}, {"measurement": "Number of TUNEL positive cells", "setting": "osteocytic MLO-Y4 cells", "value": 35}, {"measurement": "number of TUNEL negative cells", "setting": "osteocytic MLO-Y4 cells", "value": 533}, {"measurement": "bone loss induced by the glucocorticoid", "setting": "[3]", "value": "prevented the bone loss"}, {"measurement": "increase in bone cell apoptosis induced by the glucocorticoid", "setting": "[3]", "value": "abolished the increase in bone cell apoptosis"}, {"measurement": "earliest time at which increased ERK phosphorylation was observed", "setting": "ERK1/2", "value": 0.5, "unit": "min"}, {"measurement": "phosphorylation of ERK 1 and 2", "setting": "ERK1/2", "value": "rapid and transient increase"}, {"measurement": "number of living MLO-Y4 cells", "setting": "MLO-Y4 osteocytic cells; 10^−6 M dexamethasone 24 h, 10^−7 M alendronate 1 h pretreatment", "value": "abolished this effect"}, {"measurement": "prevention of apoptosis induced by etoposide or TNF-α", "setting": "MLO-Y4 osteocytic cells; 10^−7 M, 1 h pretreatment, 6 h", "value": "prevented apoptosis"}, {"measurement": "cell viability in the absence of pro-apoptotic stimuli", "setting": "MLO-Y4 osteocytic cells; 10^−10 to 10^−3 M", "value": "did not affect cell viability"}, {"measurement": "inhibition of glucocorticoid-induced apoptosis", "setting": "MLO-Y4 osteocytic cells; 1 h pretreatment", "value": "Comparable responses"}]}
{"molecule": "CC(O)(P(=O)(O)O)P(=O)(O)O", "note": "[etidronate]", "values": [{"measurement": "phosphorylation of ERK 1 and 2", "setting": "ERK1/2", "value": "increase in the phosphorylated fraction of ERKs"}, {"measurement": "reduction of resorption depth in human iliac trabecular bone", "setting": "[4]; after one year of treatment", "value": "~30", "unit": "%"}, {"measurement": "inhibition of glucocorticoid-induced apoptosis", "setting": "MLO-Y4 osteocytic cells; 1 h pretreatment", "value": "Comparable responses"}]}
{"molecule": "[F-].[Na+]", "note": "[sodium fluoride]", "values": [{"measurement": "increase in vertebral bone mass", "setting": "[4]; for at least four years", "value": 10, "unit": "% a year"}]}
{"molecule": "PTH: parathyroid hormone, intermittent administration (protein, UniProt P01270 32-115, looked up, Parathyroid hormone, parathyroid hormone, intermittent administration) Parathyroid hormone: SVSEIQLMHNLGKHLNSMERVEWLRKKLQDVHNFVALGAPLAPRDAGSQRPRKKEDNVLVESHEKSLGEADKADVNVLTKAKSQ", "values": [{"measurement": "prevalence of osteoblast apoptosis", "setting": "osteoblast apoptosis", "value": "0.1-0.4%"}]}
